Experimental data reported in patent US11827616B2, “Heterocyclic compounds as pesticides” (Discovery Purchaser Corporation, priority 2018, dated 2023).
Like-named read-outs stand apart in the source and are kept apart here.

Assays:
Assay type in all cases: in vivo
Ctenocephalides felis [1] = assay: Ctenocephalides felis in vitro contact test with adult cat fleas; conditions: application rate 5 μg/cm^2 (=500 g/ha); after 48 h
In short: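 Glass tubes coated with acetone solutions of compound (900 ppm giving 5 μg/cm^2), dried, then held 5-10 adult cat fleas at room temperature and ambient humidity. After 48 h, dead or moribund fleas were scored; efficacy expressed as percent affected.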

Boophilus microplus = Boophilus microplus injection test; conditions: for pest or weed control at 0.02 mg: Rhipicephalus microplus, 168 h
In short: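 Compound dissolved in DMSO; 1 μl injected into the abdomen of engorged adult female ticks, five per group, kept in climate-controlled room. Efficacy scored after 7 days from fertile egg laying (100% = no fertile eggs; 0% = all fertile), with unclear eggs held ~42 days until hatching.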

Myzus persicae = Myzus persicae spray test; conditions: after 5 days
Experimental: Myzus persicae—Spray Test
Solvent: 78 parts by weight of acetone • • 1.5 parts by weight of dimethylformamide
(§1) Emulsifier: alkylaryl polyglycol ether
(§2) To produce a suitable active compound formulation, 1 part by weight of active compound is dissolved with the specified parts by weight of solvent and made up to the desired concentration with water containing an emulsifier concentration of 1000 ppm. To produce further test concentrations, the formulation is diluted with emulsifier-containing water.
Discs of Chinese cabbage leaves (Brassica pekinensis) infested by all stages of the green peach aphid (Myzus persicae) are sprayed with an active compound formulation of the desired concentration.
After 5 days, the efficacy in % is determined. 100% means that all the aphids have been killed; 0% means that no aphids have been killed.

Phaedon cochleariae = Phaedon cochleariae spray test; conditions: for pest or weed control at 500 g/ha: Phaedon cochleariae, 168 h, read-out: efficacy
In short: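 Chinese cabbage leaf discs sprayed with compound formulated in acetone/DMF and water with 1000 ppm emulsifier, then infested with mustard beetle larvae once dry. Percent larval kill scored after 7 days (100% = all dead, 0% = none).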

Spodoptera frugiperda = Spodoptera frugiperda spray test; conditions: for pest or weed control at 500 g/ha: Spodoptera frugiperda, 168 h, read-out: efficacy
In short: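 Maize leaf discs sprayed with compound formulated in acetone/dimethylformamide and diluted in water with 1000 ppm alkylaryl polyglycol ether emulsifier. Once dry, discs are infested with fall armyworm caterpillars. Efficacy in % read after 7 days: 100% all caterpillars killed, 0% none killed.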

Rhipicephalus sanguineus = Rhipicephalus sanguineus in vitro contact test with adult brown dog ticks; conditions: application rate 5 μg/cm^2 (=500 g/ha); after 48 h
In short: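 Glass tubes coated with compound in acetone (900 ppm solution giving 5 μg/cm^2), then 5-10 adult ticks held in the dark at room temperature and ambient humidity. At 48 h, ticks placed on a 45-50° C. hotplate for up to 5 min; motionless or uncoordinated ones scored dead/moribund, giving % efficacy.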

Lucilia cuprina = Lucilia cuprina test; conditions: application rate 100 ppm; L1 larvae; after 2 days
In short: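 About 20 first-instar larvae were placed in vessels of minced horsemeat with compound at the desired concentration. Compound was dissolved in DMSO and diluted in water. Percent kill scored after 2 days.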

Nilaparvata lugens = Nilaparvata lugens test; conditions: application rate 500 g/ha; after 4 days
Experimental: Solvent: 78.0 parts by weight of acetone • • 1.5 parts by weight of dimethylformamide
as §1, §2
Rice plants (Oryza sativa) are sprayed with the active compound formulation of the desired concentration and then infected with the brown planthopper (Nilaparvata lugens).
After 4 days, the efficacy in % is determined. 100% means that all of the planthoppers have been killed; 0% means that none of the planthoppers have been killed.

Tetranychus urticae = Tetranychus urticae spray test, OP-resistant; conditions: application rate 500 g/ha; after 6 days
In short: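 Bean leaf discs carrying all stages of OP-resistant Tetranychus urticae were sprayed with compound in acetone/dimethylformamide diluted in water containing alkylaryl polyglycol ether emulsifier (1000 ppm). Mortality scored after 6 days as % efficacy (100% = all mites killed).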

[2] = system: cattle ticks (Boophilus microplus) Parkhurst strain, SP-resistant; assay: Boophilus microplus dip test; conditions: application rate 100 ppm, after 7 days
Experimental: Boophilus microplus—Dip Test
Test animals: cattle ticks (Boophilus microplus) Parkhurst strain, SP-resistant
(§3) Solvent: dimethyl sulfoxide
10 mg of active compound are dissolved in 0.5 ml of dimethyl sulfoxide. To produce a suitable formulation, the active compound solution is diluted with water to the concentration desired in each case.
This active compound formulation is pipetted into tubes. 8-10 engorged adult female cattle ticks (Boophilus microplus) are transferred into a further tube with holes. The tube is immersed into the active compound formulation, and all the ticks are completely wetted. After the liquid has run out, the ticks are transferred on filter disks into plastic dishes and stored in a climate-controlled room.
Efficacy is assessed after 7 days by laying of fertile eggs. Eggs which are not visibly fertile are stored in a climate-controlled cabinet until the larvae hatch after about 42 days. An efficacy of 100% means that none of the ticks has laid any fertile eggs; 0% means that all the eggs are fertile.

Ctenocephalides felis [3] = assay: Ctenocephalides felis oral test; conditions: application rate 100 ppm in citrated cattle blood; after 2 days
Experimental: Ctenocephalides felis—Oral Test
as §3
To produce a suitable active compound formulation, 10 mg of active compound are mixed with 0.5 ml of dimethyl sulfoxide. Dilution with citrated cattle blood gives the desired concentration.
About 20 unfed adult cat fleas (Ctenocephalides felis) are placed into a chamber which is closed at the top and bottom with gauze. A metal cylinder whose bottom end is closed with parafilm is placed onto the chamber. The cylinder contains the blood/active compound formulation, which can be imbibed by the fleas through the parafilm membrane.
After 2 days, the kill in % is determined. 100% means that all of the fleas have been killed; 0% means that none of the fleas have been killed.

[4] = system: Anopheles gambiae strain RSPH (homozygot kdr); assay: Anopheles test (ANPHGB surface treatment); conditions: read-out: efficacy (mortality in %)
Experimental: Anopheles Test (ANPHGB Surface Treatment)
(§4) Solvent: acetone+2000 ppm rapeseed oil methyl ester (RME)
(§5) To produce an appropriate active compound formulation, the active compound is dissolved in the solvent (2 mg/ml). The active compound formulation is pipetted onto a glazed tile and, after it has dried off, adult mosquitoes of the species Anopheles gambiae strain RSPH (homozygot kdr) are placed onto the treated tile. The exposure time is 30 minutes.
(§6) 24 hours after contact with the treated surface, mortality in % is determined. 100% means that all mosquitoes have been killed; 0% means that none of the mosquitoes have been killed.

[5] = system: Anopheles funestus strain FUMOZ-R; assay: Anopheles test (ANPHFU surface treatment); conditions: read-out: efficacy (mortality in %)
Experimental: Anopheles Test (ANPHFU Surface Treatment)
as §4
as §5, with “funestus” for “gambiae”, “FUMOZ-R (Hunt et al., Med Vet Entomol. 2005 Sep.; 19 (3):271-5)” for “RSPH (homozygot kdr)”
as §6

[6] = system: Aedes aegypti strain MONHEIM; assay: Aedes test (AEDSAE surface treatment); conditions: read-out: efficacy (mortality in %)
Experimental: Aedes Test (AEDSAE Surface Treatment)
as §4
as §5, with “Aedes aegypti” for “Anopheles gambiae”, “MONHEIM” for “RSPH (homozygot kdr)”, “minutes. 24 hours after contact with the treated surface, mortality in % is determined. 100% means that all mosquitoes have been killed; 0% means that none of the mosquitoes have been killed.” for “minutes.”

[7] = application rate 20 μg/animal, after 7 days
[8] = application rate 500 g/ha, after 7 days
[9] = application rate 20 mg/m^2, exposure 30 minutes, 24 hours after contact
[10] = application rate 100 mg/m^2, exposure 30 minutes, 24 hours after contact

| SMILES | efficacy (fleas dead or moribund) (Ctenocephalides felis [1]) | efficacy (laying of fertile eggs) (Boophilus microplus; [7]) | efficacy (Phaedon cochleariae; [8]) | efficacy (Spodoptera frugiperda; [8]) | efficacy (ticks dead or moribund) (Rhipicephalus sanguineus) | efficacy (kill in %) (Lucilia cuprina) | efficacy (Myzus persicae; application rate 500 g/ha) | efficacy (Tetranychus urticae) | efficacy (laying of fertile eggs) [2] | efficacy (kill in %) (Ctenocephalides felis [3]) | further results |
| --- | --- | --- | --- | --- | --- | --- | --- | --- | --- | --- | --- |
| CC(C)N(CCOc1cnc(COc2cccc3c(Cl)c(Cl)ccc23)c(F)c1)C(C)C [Example 39] | 100% | 90% | 100% | 100% |  |  |  |  |  |  | efficacy (Myzus persicae; application rate 100 g/ha): 90% |
| CON(C)CCOc1cnc(COc2cccc(-c3cccc(OC(F)(F)F)c3)c2)c(F)c1 [Example 53] | 100% | 100% | 100% | 100% | 100% | 100% | 90% | 100% |  |  | efficacy (Nilaparvata lugens): 100% |
| CON(C)CCOc1cnc(COc2ccc(F)c(-c3cccc(F)c3)c2)c(F)c1 [Example 55] | 100% | 100% | 83% | 100% | 100% | 100% |  | 100% | 90% | 90% |  |
| CON(C)CCOc1cnc(COc2ccc3sc4ccccc4c3c2)c(F)c1 [Example 23] | 100% | 100% | 100% | 100% | 100% | 100% |  | 90% | 80% |  |  |
| CCOc1cc(OCc2ncc(OCCN(C)OC)cc2F)ccc1Cl [Example 54] | 100% | 100% | 100% | 100% | 100% | 100% |  | 100% | 100% |  |  |
| CON(C)CCOc1ccc(COc2ccc(F)c(-c3cccc(OC(F)(F)F)c3)c2)cn1 [Example 10] |  |  | 100% | 100% |  |  | 90% | 100% |  |  |  |
| CON(C)CCOc1cnc(COc2ccc(F)c(-c3cccc(OC(F)(F)F)c3)c2)c(C)c1 [Example 59] | 100% | 100% | 83% | 100% | 100% | 100% | 90% | 100% |  |  |  |
| CON(C)CCOc1cnc(COc2cccc3c(Cl)c(Cl)ccc23)c(F)c1 [Example 22, 2-[(6-{[(5,6-dichloro-1-naphthyl)oxy]methyl}-5-fluoropyridin-3-yl)oxy]-N-methoxy-N-methylethanamine] | 100% |  |  |  | 100% | 100% |  |  |  | 90% | pest or weed control at 0.02 mg (Boophilus microplus; application rate 20 μg/animal, after 7 days, read-out: efficacy (laying of fertile eggs)): 100%; efficacy (Nilaparvata lugens): 90%; pest or weed control at 500 g/ha (Phaedon cochleariae; [8]): 100%; pest or weed control at 500 g/ha (Spodoptera frugiperda; [8]): 100%; mortality at 20 mg/m2 [4, 9]: 80 to 100%; mortality at 100 mg/m2 [4, 10]: 80 to 100%; mortality at 20 mg/m2 [5, 9]: 80 to 100%; mortality at 100 mg/m2 [5, 10]: 80 to 100%; mortality at 20 mg/m2 [6, 9]: 80 to 100%; mortality at 100 mg/m2 [6, 10]: 80 to 100% |
| CON(C)CCOc1cnc(COc2ccc(Cl)c3ccccc23)nc1 [Example 99, 2-[(2-{[(4-chloro-1-naphthyl)oxy]methyl}pyrimidin-5-yl)oxy]-N-methoxy-N-methylethanamine] | 100% |  |  |  | 100% | 100% |  |  | 100% |  | pest or weed control at 0.02 mg (Boophilus microplus; read-out: efficacy (laying of fertile eggs), application rate 20 μg/animal, after 7 days): 100%; pest or weed control at 500 g/ha (Phaedon cochleariae): 100%; pest or weed control at 500 g/ha (Spodoptera frugiperda): 100%; mortality at 20 mg/m2 [4]: 80 to 100%; mortality at 20 mg/m2 [5]: 80 to 100%; mortality at 20 mg/m2 [6]: 80 to 100% |
| CON(C)CCOc1cnc(COc2ccc(Cl)c3ccccc23)c(F)c1 [Example 19] | 100% | 100% | 100% | 100% | 100% | 98% |  |  | 100% | 80% |  |
| CON(C)CCOc1cnc(COc2ccc3oc4ccccc4c3c2)c(F)c1 [Example 20] | 100% | 100% | 100% | 100% | 100% | 100% |  |  |  | 95% | efficacy (Nilaparvata lugens): 100% |
| CON(C)CCOc1cnc(COc2ccc(Cl)c(-c3cccc(OC(F)(F)F)c3)c2)c(F)c1 [Example 48] | 100% | 100% | 100% | 100% | 100% | 100% | 90% | 100% |  |  |  |
